Data on eight compounds can be found in US20040147494A1, “Use” (priority 2001, published 2004).

Each structure is given as a SMILES string.

One data set has as its target T1, 11 β-HSD type 2 (Rattus norvegicus, UniProt P50233).
T1 construct: Both the kidneys and livers were homogenised on ice in PBS- sucrose buffer; tissue Harlan Olac, Bicester, Oxon, UK (rats); host or cells: rat kidney homogenate supernatant (Wistar rat)
T1 sequence (P50233 1-400): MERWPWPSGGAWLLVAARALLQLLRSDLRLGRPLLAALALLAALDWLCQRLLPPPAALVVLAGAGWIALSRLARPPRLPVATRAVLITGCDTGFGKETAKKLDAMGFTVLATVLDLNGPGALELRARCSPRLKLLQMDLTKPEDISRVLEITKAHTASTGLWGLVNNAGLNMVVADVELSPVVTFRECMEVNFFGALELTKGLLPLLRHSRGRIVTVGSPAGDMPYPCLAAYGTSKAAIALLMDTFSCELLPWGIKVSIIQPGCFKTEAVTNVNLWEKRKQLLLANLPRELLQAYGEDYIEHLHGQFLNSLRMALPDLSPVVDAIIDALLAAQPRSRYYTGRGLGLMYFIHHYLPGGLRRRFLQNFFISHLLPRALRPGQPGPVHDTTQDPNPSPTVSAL
Put plainly: biochemical. The conditions noted are these: rat kidney cytosol 150 μL, 60 min, 37° C., cortisol (F) to cortisone (E), vs control without inhibitor, means n=2; for inhibition at 10 µM: read-out: % […]→E ± SD, inhibitor 10 μM, read-out: % INHIBITION F→E ± SD. The procedure: Enzymes—Rat livers and rat kidneys were obtained from normal Wistar rats (Harlan Olac, Bicester, Oxon,UK). Both the kidneys and livers were homogenised on ice in PBS- sucrose buffer (1 g/10 ml) using an Ultra-Turrax. After the livers and kidneys were homogenised the homogenate was centrifuged for five minutes at 4000 rpm. The supernatant obtained was removed and stored in glass vials at −20° C. The amount of protein per μl of rat liver and kidney cytosol was determined using the Bradford method.
The same procedure was used for the 11 β-HSD type 2 assay, the conversion F to E, to determine the amount of rat kidney to be used and the incubation time.
In these assays the influence of different inhibitors on the 11 β-HSD activity both in reductive (type 1) and oxidative (type 2) directions were assessed. In the reductive direction E is the substrate and F the product and visa versa in the case of oxidation. The method described here is for the oxidative direction.
The substrate solution contained about 50,000 cpm/ml ^3H—F in PBS-sucrose and 0.5 pM F. 1 ml of the substrate solution was added to each tube, the inhibitors were also added, at a 10 μM concentration, to each tube except to the “control” and “blank” tubes. 150 μL was added to all tubes except to the blanks, this was done to correct for the amount of ^3H[…]. The tubes were incubated for 60 minutes in a mechanically shaken water bath at 37° C. […] After incubation 50 μL of recovery was added to correct for the losses made in the next steps, containing 5000 cpm/50 μL of ^14C-E and 50 μg/50 μL of unlabelled E (to visualise the spot on the TLC-plate). The aqueous mixture was then extracted with 4 ml of ether (2×30 sec cycle, vortex mix). After freezing the aqueous phase, the ether (upper) layer was decanted into smaller tubes and evaporated at 45° C. until completely dry. The residue was then re-dissolved in 6 drops of ether and transferred to a TLC-plate. The TLC-plate was developed in chloroform:methanol (9:1 v/v) solvent system, the TLC-plate ran for about 90 minutes until the solvent front had moved about 18 cm. The position of the product E was visualised under UV-light and cut out from the TLC-plate and put into scintillation vials. Radioactivity was eluted over 5 minutes with 0.5 ml methanol. 0.5 ml of PBS- sucrose and 10 ml of Ecoscint were then added and vortex mixed before counting in the scintillation counter. Before counting the samples, two total activity vials were prepared. These contained 0.5 ml of the substrate solution, 50 μL of the recovery, 0.5 ml of methanol and 10 ml of Ecoscint. These two total activity vials were needed to determine the amount of ^14C-E and ^3H—F added in the beginning to make the calculations.
To look at the percentage of inhibition four different concentrations, 1, 5, 10 and 20 μM, were used. The method for both the rat liver, type 1 the reductive, and rat kidney, type 2 the oxidative, stay the same throughout the entire experiment.
In this experiment the influence of different inhibitors on the conversion E to F and F to E was determined. The reason why inhibition in both directions was examined was to make a comparison between the inhibitors and which type of 11 β-HSD they inhibit more. Thirty-two compounds were screened for their ability to inhibit 11 β-HSD type 1 (E to F) and type 2 (F to E). […] The percent of inhibition was calculated as the percentage of decrease in radio labelled ^3H-E and ^3H—F of product formed, compared with the control activity (the tubes without an inhibitor in it). All the results calculated are means, n=2.

In a further data set the target is T2, 11 β-HSD type 1 (Rattus norvegicus, UniProt P16232).
T2 construct: Both the kidneys and livers were homogenised on ice in PBS- sucrose buffer; tissue Harlan Olac, Bicester, Oxon, UK (rats); host or cells: rat liver homogenate supernatant (Wistar rat)
In words: biochemical. It is filed as biochemical. As to conditions: rat liver cytosol 25 μL, 90 min, 37° C., cortisone (E) to cortisol (F), vs control without inhibitor, means n=2; for inhibition at 10 µM: read-out: % […]→F ± SD, inhibitor 10 μM, read-out: % INHIBITION E→F ± SD.

T2 sequence (P16232 whole entry): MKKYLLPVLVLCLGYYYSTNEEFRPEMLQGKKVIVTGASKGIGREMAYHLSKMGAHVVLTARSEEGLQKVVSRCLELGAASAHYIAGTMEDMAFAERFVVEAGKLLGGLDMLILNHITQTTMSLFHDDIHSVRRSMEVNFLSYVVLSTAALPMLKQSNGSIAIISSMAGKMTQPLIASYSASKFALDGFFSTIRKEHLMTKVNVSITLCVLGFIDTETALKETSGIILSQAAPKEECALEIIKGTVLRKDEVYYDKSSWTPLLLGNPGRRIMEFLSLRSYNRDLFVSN

For `CCOC(=O)[C@@]1(C)CC[C@]2(C)CC[C@]3(C)C(=CC(=O)C4[C@@]5(C)CC[C@H](O)C(C)(C)C5CC[C@]43C)[C@@H]2C1` (stereo partly drawn) [STX196, 3β-hydroxy-11-oxo-18β-glycyrrhetinic acid ethyl ester], the melting point lay within 93 to 94 °C. On 11 β-HSD type 2, the inhibition at 10 µM was 97.5 ± 1.37%. Further, the inhibition at 10 µM at 11 β-HSD type 1 is 80.7 ± 2.14%.
For `CC(=O)O[C@H]1CC[C@@]2(C)C(CC[C@]3(C)C2CC=C2[C@@H]4C[C@@](C)(C(=O)OCc5ccccc5)CC[C@]4(C)CC[C@]23C)C1(C)C` (stereo partly drawn) [STX 354, 11-Deoxo-3β-aectoxy-18β-glycyrrhetinic acid benzyl ester] the same measures were 207 to 208 °C, 13.6 ± 1.42% and -1.18 ± 9.22%.
In the same order, the values of `CC(=O)C1CCC2C3CCC4=CC(=O)CC[C@]4(C)C3C(=O)C[C@]12C` (some centres unmarked) [STX124, 11-Oxo-progesterone] are 182 to 183 °C, 92.6 ± 2.1% and 100 ± 6.8%.
In the same order, the values of `CO[C@@H]1C[C@]2(C)C(C(C)=O)CCC2C2CCC3=CC(=O)CC[C@]3(C)C21` (stereo partly drawn) [STX193, 11α-Methoxyprogesterone] are 164 to 165 °C, 68.2 ± 3.68% and 48.1 ± 0.313%.
Take `CC(=O)C1CCC2C3CCC4=CC(=O)CC[C@]4(C)C3[C@H](OCc3ccccc3)C[C@]12C` (stereo partly drawn) [STX 185, 11α-Benzyloxyprogesterone]: the melting point lay in the range of 207 to 210 °C. Also, the inhibition at 10 µM at 11 β-HSD type 2 came out at 18.9 ± 4.2%. In addition, the “% INHIBITION E→F ± SD” value at 11 β-HSD type 1 (inhibitor 10 μM, 10 µM) turned out to be 16.1 ± 10.4%. The inhibition at 10 µM on 11 β-HSD type 1 came out at 14%.
Turning to `CC(O)C1CCC2C3CCC4=C[C@@H](O)CC[C@]4(C)C3[C@H](OCc3ccccc3)C[C@]12C` (stereo in doubt) [STX-126, 11α-benzyloxy-3,20-dihydroxyprogesterone], the melting point lay in the range of 117 to 118 °C. Also, the inhibition at 10 µM on 11 β-HSD type 2 turned out to be 13.5 ± 2.97%. The inhibition at 10 µM on 11 β-HSD type 1 was found to be 33.8 ± 0.354%.
`CC1(C)C2CC[C@]3(C)C(C(=O)C=C4[C@@H]5C[C@@](C)(C(=O)OCC6CCCCC6)CC[C@]5(C)CC[C@]43C)[C@@]2(C)CC[C@@H]1O` (stereo partly drawn) [STX198, 3β-hydroxy-11-oxo-18β-glycyrrhetinic acid cyclohexylmethyl ester] registered a melting point of 98 to 99 °C. The “% INHIBITION F→E ± SD” value on 11 β-HSD type 2 (inhibitor 10 μM, 10 µM) turned out to be 33.1 ± 1.838%. In addition, the inhibition at 10 µM on 11 β-HSD type 2 is 33%. Further, on 11 β-HSD type 1, the inhibition at 10 µM turned out to be 52.3 ± 1.25%.
`CC(O)C1CCC2C3CCC4=C[C@@H](O)CC[C@]4(C)C3[C@H](O)C[C@]12C` (stereo in doubt) [STX125, 3,11,20-Trihydroxyproqesterone] showed a melting point of 122 to 125 °C. Further, the inhibition at 10 µM at 11 β-HSD type 2 worked out at 72.2 ± 4.3%. The inhibition at 10 µM at 11 β-HSD type 1 was 85.1 ± 3.4%.
